The assay addresses T1, RTN3 (Homo sapiens, UniProt O95197).
T1 construct: endogenous in cells; host or cells: HEK293T
T1 sequence (O95197 1-1032): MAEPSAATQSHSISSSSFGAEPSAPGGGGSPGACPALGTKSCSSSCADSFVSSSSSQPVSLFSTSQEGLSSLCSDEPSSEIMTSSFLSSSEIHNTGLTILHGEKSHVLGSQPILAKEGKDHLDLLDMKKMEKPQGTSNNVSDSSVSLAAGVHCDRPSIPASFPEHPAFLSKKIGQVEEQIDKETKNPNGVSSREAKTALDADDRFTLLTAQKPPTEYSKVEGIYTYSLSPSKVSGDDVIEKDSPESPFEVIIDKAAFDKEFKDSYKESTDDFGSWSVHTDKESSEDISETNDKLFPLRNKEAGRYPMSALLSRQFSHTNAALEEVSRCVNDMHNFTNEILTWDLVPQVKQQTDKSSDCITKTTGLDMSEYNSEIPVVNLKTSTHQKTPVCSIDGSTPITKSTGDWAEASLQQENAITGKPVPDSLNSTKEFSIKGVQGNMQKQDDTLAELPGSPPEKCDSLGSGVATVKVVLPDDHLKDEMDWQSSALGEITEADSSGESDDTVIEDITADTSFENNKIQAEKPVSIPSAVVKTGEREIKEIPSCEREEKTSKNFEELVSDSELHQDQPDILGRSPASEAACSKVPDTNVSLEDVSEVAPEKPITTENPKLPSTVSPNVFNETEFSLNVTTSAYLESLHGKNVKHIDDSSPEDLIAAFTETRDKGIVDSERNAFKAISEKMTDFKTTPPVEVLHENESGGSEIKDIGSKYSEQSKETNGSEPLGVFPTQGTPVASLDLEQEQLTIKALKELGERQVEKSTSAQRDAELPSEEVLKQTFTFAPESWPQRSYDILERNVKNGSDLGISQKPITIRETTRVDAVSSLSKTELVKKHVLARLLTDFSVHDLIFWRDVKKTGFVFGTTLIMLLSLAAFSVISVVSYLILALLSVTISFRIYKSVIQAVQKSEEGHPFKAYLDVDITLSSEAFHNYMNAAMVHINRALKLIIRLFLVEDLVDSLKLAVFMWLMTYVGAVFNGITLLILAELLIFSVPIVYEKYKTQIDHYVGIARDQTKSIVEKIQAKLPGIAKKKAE
The experiment in a line: ABPP chemical proteomics (LC-MS/MS) in HEK293T cells. It counts as cell-based. As for the experimental part:
To explore the selectivity of IMP-2587 and IMP-2586 across the whole proteome, we performed quantitative activity-based protein profiling (ABPP) in HEK293T cells following treatment with IMP-2587 or IMP-2586 (Fig. 3a). After ABP incubation, cells were lysed, and probe-labelled proteins were ligated to biotinylated capture reagents.[27] […] USP30 was outcompeted by corresponding parent inhibitors for each ABP (Fig. 5b and d and Tables S3 and S5, ESI ^†), confirming the high potency and rapid engagement of IMP-2587 and IMP-2586 in cells. […] DESI1 and DESI2 are small ubiquitin-related modifier (SUMO) proteases,[3,29–32] and IMP-2587 and IMP-2586 may offer a starting point for future development of DESI ABPs. […]
d) Live cell probe incubation, lysate click chemistry and precipitation 6-well HEK293T cells were incubated with media containing compounds ABP 2 and ABP 4 at indicated concentrations for 1 h at 37 °C. The cells were washed with PBS and lysed with lysis buffer (50 μL (1% (v/v) Triton X-100, 0.1% (w/v) sodium dodecyl sulfate (SDS), EDTA-free complete protease inhibitor cocktail (1×, Roche) in PBS on ice for 10 min. The lysates were scraped and transferred to corresponding Lo-Bind Eppendorfs. Each lysate was sonicated for 1 minute, and the samples centrifuges at 5,000 x g at 4 °C for 5 minutes to pellet insoluble cellular debris. The supernatant was collected, and protein concentration was determined using the DC Protein Assay (Bio-Rad) as per manufacturer’s instructions, and normalised to lowest concentrated sample (e.g. 1 mg/mL, using lysis buffer). The following “click mixture” was prepared separately, preparing 6 μL for every 100 μL of […]
Capture reagent (AzRB/AzT for ABP 2, YnT/YnB for ABP 4 10 mM in DMSO, 1 vol; final concentration […]
CuSO4 (50 mM in water, 2 vol; final concentration in reaction 1 mM)
TCEP (50 mM in water, 2 vol; final concentration in reaction 1 mM)
TBTA (10 mM in DMSO, 1 vol; final concentration in reaction 100 µM)
The click mixture was vortexed and incubated at room temperature for 2 min before 6 μL of the mixture was added to every 100 μL of lysate. The reaction mixtures were shaken at room temperature for 1 h before being quenched with EDTA (500 mM in H2O) to a final concentration of 10 mM.
Proteins were precipitated by adding H2O (1 vol), MeOH (2 vol) and CHCl3 (0.5 vol), vortexing briefly then centrifuging at 17,000 × g for 5 min. The top H2O/MeOH layer was discarded and the middle layer of protein pellet and lower CHCl3 layer retained. The suspension was washed with MeOH (300 μL), and sonicated to break up the pellet. The proteins were pelleted by centrifugation at 10,000–17000 × g for 5–10 min or until a compact pellet was formed. The protein pellet was washed once more with MeOH (1 mL). The pellet was resuspended by sonicating and completely dissolving in 1% (w/v) SDS in PBS (to 5 mg/mL protein) before being made up to 1 mg/mL protein with PBS. […]
f) Neutravidin biotin enrichment (Affinity pull-down)
Click chemistry and precipitation steps were carried out as described in section 3.2.d, on at least 400ug of protein per sample. The pellet was resuspended by sonicating and completely dissolving in 1% (w/v) SDS in HEPES 50 mM pH 8.0, before being made up to 1 mg/mL protein with HEPES 50 mM pH 8.0 to […]
achieve a final concentration of 0.2% SDS. 20uL of each samples was collected as TL (Total lysate) samples. Pull down of biotinylated proteins was achieved by incubating samples with pre-equilibrated (3x 1 mL washes with 0.2% (w/v) SDS in HEPES 50 mM pH 8 buffer) Pierce™ NeutrAvidin™ Agarose beads for 3 hours at room temperature. NeutrAvidin™ Agarose beads were used in ratio of 1 μL bead resin per 10ug of protein sample. The beads were subsequently washed by moderate shaking for 10 seconds then briefly pelleting by table-top centrifuge then vacuum aspirating the supernatant with fine-end pipette tips (to not disturb the agarose) after collecting 20 µL supernatant as SN (supernatant […]
) samples. […]

Each structure is given as a SMILES string.

Regarding `N#CN1CC[C@@H](NC(=O)c2cc(-c3ccccc3Oc3ccc(N=[N+]=[N-])cc3)n[nH]2)C1` [IMP-2586], the “Difference (log2 fold change of enrichment)” value (IMP-2586 labelling vs DMSO, 30 nM, 10 min, HEK293T (Table S4, Fig.5c)) was 0.91.

Take `C#Cc1cccc(-c2cc(NC(=O)CC3CCN(C#N)C3)on2)c1` (stereo not shown) [IMP-2587]: the “Difference (log2 fold change of enrichment)” value (IMP-2587 labelling vs DMSO, 30 nM, 10 min, HEK293T (Table S2, Fig.5a)) is on record as 1.07.

Turning to `N#CN1CC[C@H](CC(=O)Nc2cc(-c3cccc(Cl)c3)no2)C1` [compound 1, reference compound], the “Difference (log2 fold change of enrichment)” value (compound 1 out-competition with IMP-2587 labelling, HEK293T (Table S3, Fig.5b)) is given as -0.64.

Take `N#CN1CC[C@@H](NC(=O)c2cc(-c3ccccc3Oc3ccccc3)n[nH]2)C1` [compound 3, reference compound]: the “Difference (log2 fold change of enrichment)” value (compound 3 out-competition with IMP-2586 labelling, HEK293T (Table S5, Fig.5d)) is -0.42.

Values taken from article PMC11078216, “Discovery of potent and selective activity-based probes (ABPs) for the deubiquitinating enzyme USP30” (RSC Chemical Biology, 2024).
